Consider 1 molecule from patent publication US20110288101A1, “SURGICAL CO[…]-RECEPTOR AGONISTS” (ALCON RESEARCH, LTD., priority 2010, published 2011).

This test has as its system rabbit corneal endothelial cells. The test is described as follows: MTS cell viability assay, protection against hydrogen peroxide oxidative stress. The settings on record: rabbit corneal endothelial cells in serum-free medium; 70 μM H2O2; 24 hours; 1 to 300 μM (+)-pentazocine; p<0.05 vs H2O2 control; FIG. 1. It counts as cell-based. The procedure: Studies were performed to determine whether (+)-pentazocine can protect corneal endothelial cells. Hydrogen peroxide was employed to produce oxidative stress to rabbit corneal endothelial cells in vitro.
Briefly, rabbit corneal endothelial cells maintained in serum-free medium were treated with the sigma-1 receptor agonist (+)-pentazocine and 70 μM H2O2 for 24 hours. At the end point, a cell viability assay (MTS assay) is performed. The MTS assay is a laboratory test and standard colorimetric assay for measuring the activity of enzymes that reduce MTS+PMS to formazan, producing a purple color. MTS (3-(4,5-dimethylthiazol-2-yl)-5-(3-carboxymethoxyphenyl)-2-(4-sulfophenyl)-2H-tetrazolium), in the presence of phenazine methosulfate (PMS), produces a water-soluble formazan product that has an absorbance maximum at 490-500 nm in phosphate-buffered saline. These reduction reactions take place only when reductase enzymes are active, and the production of formazan product is therefore used as a measure of cell viability.
Lower absorbance numbers correlate to reduced cell viability.
On the technique in general: Tetrazolium dyes change colour on reduction, which living cells bring about.

As for `CC(C)=CCN1CCC2(C)c3cc(O)ccc3CC1C2C` (single isomer, unassigned; (+)) [(+)-pentazocine], the “protection of cell viability (MTS absorbance) against damage induced by hydrogen peroxide” value is “dose-dependent protection”.
